ChEMBL document CHEMBL3864140, “Melanogenesis inhibitory activity of a 7-O-9'-linked neolignan from Alpinia galanga fruit” (Bioorg Med Chem, 2016)

Key:
[1] = Antimelanogenic activity in theophylline-stimulated mouse B16-4A5 cells assessed as inhibition of melanogenesis at 300 uM after 72 hrs relative to control; format: functional; settings: B16-4A5, 72 h
[2] = Antimelanogenic activity in theophylline-stimulated mouse B16-4A5 cells assessed as inhibition of melanogenesis at 1000 uM after 72 hrs relative to control; format: functional; settings: B16-4A5, 72 h
[3] = Cytotoxicity against theophylline-stimulated mouse B16-4A5 cells assessed as cell viability at 30 uM after 72 hrs by MTT assay relative to control; format: toxicity; settings: theophylline-stimulated B16-4A5 cells, read-out: Activity
[4] = Cytotoxicity against theophylline-stimulated mouse B16-4A5 cells assessed as cell viability at 100 uM after 72 hrs by MTT assay relative to control; format: toxicity; settings: theophylline-stimulated B16-4A5 cells, read-out: Activity
[5] = Cytotoxicity against theophylline-stimulated mouse B16-4A5 cells assessed as cell viability at 300 uM after 72 hrs by MTT assay relative to control; format: toxicity; settings: theophylline-stimulated B16-4A5 cells, read-out: Activity
[6] = Cytotoxicity against theophylline-stimulated mouse B16-4A5 cells assessed as cell viability at 1000 uM after 72 hrs by MTT assay relative to control; format: toxicity; settings: theophylline-stimulated B16-4A5 cells, read-out: Activity
[7] = cells; settings: Mus musculus, B16-4A5, 72 h, read-out: INH
Description: Antimelanogenic activity in theophylline-stimulated mouse B16-4A5 cells assessed as inhibition of melanogenesis at 30 uM after 72 hrs relative to control

[8] = cells; settings: Mus musculus, B16-4A5, 72 h, read-out: INH; remark: listed apart in the source
[9] = Antimelanogenic activity in theophylline-stimulated mouse B16-4A5 cells assessed as inhibition of melanogenesis at 0.3 uM after 72 hrs relative to control; format: functional; settings: B16-4A5, 72 h
[10] = Antimelanogenic activity in theophylline-stimulated mouse B16-4A5 cells assessed as inhibition of melanogenesis at 1 uM after 72 hrs relative to control; format: functional; settings: B16-4A5, 72 h
[11] = Antimelanogenic activity in theophylline-stimulated mouse B16-4A5 cells assessed as inhibition of melanogenesis at 3 uM after 72 hrs relative to control; format: functional; settings: B16-4A5, 72 h
[12] = Antimelanogenic activity in theophylline-stimulated mouse B16-4A5 cells assessed as inhibition of melanogenesis at 10 uM after 72 hrs relative to control; format: functional; settings: B16-4A5, 72 h
[13] = Antimelanogenic activity in theophylline-stimulated mouse B16-4A5 cells assessed as inhibition of melanogenesis after 72 hrs relative to control; format: functional, cell-based
[14] = Cytotoxicity against theophylline-stimulated mouse B16-4A5 cells assessed as cell viability at 0.3 uM after 72 hrs by MTT assay relative to control; format: toxicity; settings: theophylline-stimulated B16-4A5 cells, read-out: Activity
[15] = Cytotoxicity against theophylline-stimulated mouse B16-4A5 cells assessed as cell viability at 1 uM after 72 hrs by MTT assay relative to control; format: toxicity; settings: theophylline-stimulated B16-4A5 cells, read-out: Activity
[16] = Cytotoxicity against theophylline-stimulated mouse B16-4A5 cells assessed as cell viability at 3 uM after 72 hrs by MTT assay relative to control; format: toxicity; settings: theophylline-stimulated B16-4A5 cells, read-out: Activity
[17] = Cytotoxicity against theophylline-stimulated mouse B16-4A5 cells assessed as cell viability at 10 uM after 72 hrs by MTT assay relative to control; format: toxicity; settings: theophylline-stimulated B16-4A5 cells, read-out: Activity
[18] = Potency index, ratio of arbutin IC50 to compound IC50 for antimelanogenic activity in mouse B16-4A5 cells; format: functional
[19] = Downregulation of tyrosinase expression in theophylline-stimulated mouse B16-4A5 cells assessed as ratio of tyrosinase mRNA expression to beta-actin mRNA expression at 3 uM after 72 hrs by qRT-PCR analysis (reference value: […] +/- […]); format: functional, cell-based
[20] = Downregulation of tyrosinase expression in theophylline-stimulated mouse B16-4A5 cells assessed as ratio of tyrosinase mRNA expression to beta-actin mRNA expression at 10 uM after 72 hrs by qRT-PCR analysis (reference value: […] +/- […]); format: functional, cell-based
[21] = Downregulation of TRP1 expression in theophylline-stimulated mouse B16-4A5 cells assessed as ratio of TRP1 mRNA expression to beta-actin mRNA expression at 3 uM after 72 hrs by qRT-PCR analysis (reference value: […] +/- […]); format: functional, cell-based
[22] = Downregulation of TRP1 expression in theophylline-stimulated mouse B16-4A5 cells assessed as ratio of TRP1 mRNA expression to beta-actin mRNA expression at 10 uM after 72 hrs by qRT-PCR analysis (reference value: […] +/- […]); format: functional, cell-based
[23] = Downregulation of TRP2 expression in theophylline-stimulated mouse B16-4A5 cells assessed as ratio of TRP2 mRNA expression to beta-actin mRNA expression at 3 uM after 72 hrs by qRT-PCR analysis (reference value: […] +/- […]); format: functional, cell-based
[24] = Downregulation of TRP2 expression in theophylline-stimulated mouse B16-4A5 cells assessed as ratio of TRP2 mRNA expression to beta-actin mRNA expression at 10 uM after 72 hrs by qRT-PCR analysis (reference value: […] +/- […]); format: functional, cell-based

IC50 [13]	Structure (SMILES)	inhibition at 0.3 µM [9]	inhibition at 1 µM [10]	inhibition at 3 µM [11]	inhibition at 10 µM [12]	viability at 72 h, 0.3 µM [14]	viability at 72 h, 1 µM [15]	viability at 72 h, 3 µM [16]	viability at 72 h, 10 µM [17]	Ratio IC50 [18]	Ratio [19]	Ratio [20]	Ratio [21]	Ratio [22]	Ratio [23]	Ratio [24]	also measured
–	OC[C@H]1O[C@@H](Oc2ccc(O)cc2)[C@H](O)[C@@H](O)[C@@H]1O [ARBUTIN]	–	–	–	–	–	–	–	–	–	–	–	–	–	–	–	inhibition at 300 µM [1]: 61.5%; inhibition at 1000 µM [2]: 83.7%; viability at 72 h, 30 µM [3]: 82.4%; viability at 72 h, 100 µM [4]: 78.1%; viability at 72 h, 300 µM [5]: 79.8%; viability at 72 h, 1000 µM [6]: 53.1%; inhibition at 30 µM [7]: 20.4%; inhibition at 100 µM [8]: 38.1%
5.6 µM	C=C[C@H](OC(C)=O)c1ccc(OC(C)=O)c(OC)c1	-4.9%	15.3%	16.8%	84.4%	92%	105%	101%	42.3%	>25 - 70	1.1	0.8	0.52	0.29	0.89	0.88	–
2.5 µM	C=C[C@H](OC/C=C/c1ccc(OC(C)=O)cc1)c1ccc(OC(C)=O)cc1	-5.9%	10%	58.5%	117%	98.1%	82.9%	68.5%	26.5%	>25 - 70	0.87	0.53	0.76	0.99	0.72	1.43	–
